The values that follow come from ChEMBL document CHEMBL1649403, “CYP1A2-mediated biotransformation of cardioactive 2-thienylidene-3,4-methylenedioxybenzoylhydrazine (LASSBio-294) by rat liver microsomes and human recombinant CYP enzymes” (Eur J Med Chem, 2011).

The target in data set [1] is Cytochrome P450 2C19 (Homo sapiens, UniProt P33261). Briefly: Activity of human recombinant CYP2C19 assessed as compound remaining. It counts as ADME. The conditions noted are these: recombinant enzyme.
In data set [2] the target is T1, Cytochrome P450 1A2 (Homo sapiens, UniProt P05177).
T1 sequence (P05177 whole entry): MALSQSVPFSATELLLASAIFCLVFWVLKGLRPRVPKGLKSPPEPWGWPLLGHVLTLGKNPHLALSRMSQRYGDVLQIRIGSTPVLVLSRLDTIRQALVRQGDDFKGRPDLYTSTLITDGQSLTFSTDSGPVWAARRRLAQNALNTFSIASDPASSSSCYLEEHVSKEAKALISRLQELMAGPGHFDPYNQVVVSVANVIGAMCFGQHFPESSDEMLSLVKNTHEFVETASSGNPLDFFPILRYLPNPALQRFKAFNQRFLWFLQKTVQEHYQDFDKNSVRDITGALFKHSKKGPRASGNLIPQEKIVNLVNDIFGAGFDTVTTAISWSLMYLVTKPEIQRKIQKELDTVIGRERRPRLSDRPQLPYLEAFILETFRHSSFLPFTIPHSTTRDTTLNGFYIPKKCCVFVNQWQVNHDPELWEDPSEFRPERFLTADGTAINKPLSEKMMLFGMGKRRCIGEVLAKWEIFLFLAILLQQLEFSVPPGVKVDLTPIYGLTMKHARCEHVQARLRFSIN
Briefly: Activity of human recombinant CYP1A2 assessed as compound remaining. It counts as ADME. The conditions noted are these: recombinant enzyme.

The target in data set [3] is Cytochrome P450 3A5 (Homo sapiens, UniProt P20815). Briefly: Activity of human recombinant CYP3A5 assessed as compound remaining. The data set is classed as ADME. The conditions noted are these: recombinant enzyme.
Sequence of Cytochrome P450 3A5 (P20815 whole entry): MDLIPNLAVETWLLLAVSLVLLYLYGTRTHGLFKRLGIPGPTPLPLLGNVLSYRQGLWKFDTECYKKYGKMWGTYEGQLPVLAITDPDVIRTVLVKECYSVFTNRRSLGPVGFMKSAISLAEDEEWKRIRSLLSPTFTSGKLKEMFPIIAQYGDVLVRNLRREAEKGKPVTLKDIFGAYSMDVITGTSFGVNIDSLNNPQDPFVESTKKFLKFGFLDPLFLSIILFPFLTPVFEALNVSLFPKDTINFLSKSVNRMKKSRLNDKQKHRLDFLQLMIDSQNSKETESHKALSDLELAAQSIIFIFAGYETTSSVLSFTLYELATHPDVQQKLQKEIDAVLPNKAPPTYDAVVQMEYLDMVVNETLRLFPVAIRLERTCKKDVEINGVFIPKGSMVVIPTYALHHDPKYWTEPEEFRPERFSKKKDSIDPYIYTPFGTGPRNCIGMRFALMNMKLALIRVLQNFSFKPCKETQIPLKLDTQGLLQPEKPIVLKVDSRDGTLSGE
Data set [4] addresses T2, Cytochrome P450 2C8 (Homo sapiens, UniProt P10632).
T2 sequence (P10632 whole entry): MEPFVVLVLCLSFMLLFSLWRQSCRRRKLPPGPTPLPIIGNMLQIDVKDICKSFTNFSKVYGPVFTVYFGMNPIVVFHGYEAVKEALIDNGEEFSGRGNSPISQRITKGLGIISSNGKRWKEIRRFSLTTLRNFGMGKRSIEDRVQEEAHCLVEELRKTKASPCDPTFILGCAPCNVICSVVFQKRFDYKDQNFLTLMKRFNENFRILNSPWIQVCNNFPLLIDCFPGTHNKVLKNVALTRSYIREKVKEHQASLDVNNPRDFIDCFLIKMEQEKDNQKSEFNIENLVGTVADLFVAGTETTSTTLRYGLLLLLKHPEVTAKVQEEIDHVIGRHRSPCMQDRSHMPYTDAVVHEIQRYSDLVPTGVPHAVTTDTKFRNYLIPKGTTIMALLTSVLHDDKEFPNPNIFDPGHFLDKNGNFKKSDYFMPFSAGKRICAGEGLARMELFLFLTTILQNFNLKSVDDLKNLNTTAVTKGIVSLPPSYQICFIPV
The data set can be described thus: Activity of human recombinant CYP2C8 assessed as compound remaining. It counts as ADME. The conditions noted are these: recombinant enzyme.

Data set [5] deals with Cytochrome P450 2C9 (Homo sapiens, UniProt P11712). The data set can be described thus: Activity of human recombinant CYP2C9 assessed as compound remaining. The data set is classed as ADME. Conditions: recombinant enzyme.
Sequence of Cytochrome P450 2C9 (P11712 whole entry): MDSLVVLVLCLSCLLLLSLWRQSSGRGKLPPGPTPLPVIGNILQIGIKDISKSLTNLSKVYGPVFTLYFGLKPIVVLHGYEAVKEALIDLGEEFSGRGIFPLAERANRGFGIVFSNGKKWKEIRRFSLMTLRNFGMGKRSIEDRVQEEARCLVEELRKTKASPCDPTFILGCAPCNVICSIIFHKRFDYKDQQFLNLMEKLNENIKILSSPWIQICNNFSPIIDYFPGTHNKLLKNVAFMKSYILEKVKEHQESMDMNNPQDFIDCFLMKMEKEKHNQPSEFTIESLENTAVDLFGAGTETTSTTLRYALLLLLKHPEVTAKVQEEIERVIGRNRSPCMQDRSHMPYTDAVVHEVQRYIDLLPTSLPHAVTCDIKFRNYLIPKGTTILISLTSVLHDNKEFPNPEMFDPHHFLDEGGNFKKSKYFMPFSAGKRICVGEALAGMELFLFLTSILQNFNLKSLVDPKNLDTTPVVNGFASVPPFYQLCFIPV
Data set [6] concerns the target Cytochrome P450 2D6 (Homo sapiens, UniProt P10635). The data set can be described thus: Activity of human recombinant CYP2D6 assessed as compound remaining. It counts as ADME. Conditions: recombinant enzyme.
Data set [7] deals with Cytochrome P450 3A4 (Homo sapiens, UniProt P08684). Briefly: Activity of human recombinant CYP3A4 assessed as compound remaining. The data set is classed as ADME. The conditions noted are these: recombinant enzyme.
Sequence of Cytochrome P450 3A4 (P08684 whole entry): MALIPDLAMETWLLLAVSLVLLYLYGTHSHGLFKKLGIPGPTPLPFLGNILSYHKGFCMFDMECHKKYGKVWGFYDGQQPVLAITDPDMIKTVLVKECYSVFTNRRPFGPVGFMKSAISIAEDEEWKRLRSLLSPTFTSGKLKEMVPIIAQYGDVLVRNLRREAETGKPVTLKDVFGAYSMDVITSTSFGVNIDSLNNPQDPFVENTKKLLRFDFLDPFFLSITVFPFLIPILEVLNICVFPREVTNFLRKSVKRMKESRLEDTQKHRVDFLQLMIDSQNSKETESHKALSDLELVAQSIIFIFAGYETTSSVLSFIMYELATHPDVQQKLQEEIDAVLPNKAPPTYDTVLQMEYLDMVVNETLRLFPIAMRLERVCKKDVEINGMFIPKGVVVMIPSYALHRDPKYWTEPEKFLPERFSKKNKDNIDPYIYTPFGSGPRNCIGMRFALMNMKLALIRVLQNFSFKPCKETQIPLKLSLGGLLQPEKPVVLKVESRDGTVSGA
In data set [8] the target is T3, Cytochrome P450 2B6 (Homo sapiens, UniProt P20813).
T3 sequence (P20813 whole entry): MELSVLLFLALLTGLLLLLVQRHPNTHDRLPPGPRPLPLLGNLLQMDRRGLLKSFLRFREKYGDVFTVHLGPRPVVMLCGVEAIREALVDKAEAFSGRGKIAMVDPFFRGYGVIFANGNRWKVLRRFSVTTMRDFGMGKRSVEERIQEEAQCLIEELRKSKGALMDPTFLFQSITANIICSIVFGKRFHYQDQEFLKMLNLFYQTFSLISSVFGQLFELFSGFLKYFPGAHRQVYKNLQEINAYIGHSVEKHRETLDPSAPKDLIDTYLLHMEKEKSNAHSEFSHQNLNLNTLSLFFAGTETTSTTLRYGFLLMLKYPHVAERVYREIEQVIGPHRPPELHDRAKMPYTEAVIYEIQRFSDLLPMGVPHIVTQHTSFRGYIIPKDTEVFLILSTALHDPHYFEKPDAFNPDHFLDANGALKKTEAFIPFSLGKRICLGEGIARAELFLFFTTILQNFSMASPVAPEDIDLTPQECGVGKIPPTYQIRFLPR
Briefly: Activity of human recombinant CYP2B6 assessed as compound remaining. It counts as ADME. The conditions noted are these: recombinant enzyme.

In data set [9] the test system is Liver microsomes. The data set can be described thus: Metabolic stability in rat liver microsomes in presence of CYP1A2 inhibitor furafylline. The data set is classed as ADME, Microsome.
For data set [10], the system named is Liver microsomes. Briefly: Metabolic stability in rat liver microsomes in presence of non-selective cytochrome P450 inhibitor ketoconazole. The data set is classed as ADME, Microsome.
Data set [11] concerns Liver microsomes. The data set can be described thus: Metabolic stability in rat liver microsomes in presence of CYP2D6 inhibitor quinidine. It counts as ADME, Microsome.
Data set [12] relates to Liver microsomes. The data set can be described thus: Metabolic stability in rat liver microsomes in presence of CYP2C9 inhibitor sulfaphenazole. The data set is classed as ADME, Microsome.

Sequence of Cytochrome P450 2D6 (P10635 whole entry): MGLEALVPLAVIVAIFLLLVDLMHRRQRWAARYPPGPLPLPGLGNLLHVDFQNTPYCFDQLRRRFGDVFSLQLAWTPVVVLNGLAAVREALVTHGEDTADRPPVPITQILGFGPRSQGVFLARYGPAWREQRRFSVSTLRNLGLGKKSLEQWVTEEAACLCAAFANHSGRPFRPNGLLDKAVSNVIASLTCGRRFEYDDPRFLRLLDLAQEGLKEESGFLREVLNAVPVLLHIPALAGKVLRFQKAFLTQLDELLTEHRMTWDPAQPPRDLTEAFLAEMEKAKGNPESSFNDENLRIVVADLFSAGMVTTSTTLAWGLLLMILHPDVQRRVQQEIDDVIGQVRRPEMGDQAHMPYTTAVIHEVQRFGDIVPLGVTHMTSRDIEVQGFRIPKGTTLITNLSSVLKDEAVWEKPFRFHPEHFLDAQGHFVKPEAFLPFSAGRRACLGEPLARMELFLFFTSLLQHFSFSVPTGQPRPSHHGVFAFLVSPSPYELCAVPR
Sequence of Cytochrome P450 2C19 (P33261 whole entry): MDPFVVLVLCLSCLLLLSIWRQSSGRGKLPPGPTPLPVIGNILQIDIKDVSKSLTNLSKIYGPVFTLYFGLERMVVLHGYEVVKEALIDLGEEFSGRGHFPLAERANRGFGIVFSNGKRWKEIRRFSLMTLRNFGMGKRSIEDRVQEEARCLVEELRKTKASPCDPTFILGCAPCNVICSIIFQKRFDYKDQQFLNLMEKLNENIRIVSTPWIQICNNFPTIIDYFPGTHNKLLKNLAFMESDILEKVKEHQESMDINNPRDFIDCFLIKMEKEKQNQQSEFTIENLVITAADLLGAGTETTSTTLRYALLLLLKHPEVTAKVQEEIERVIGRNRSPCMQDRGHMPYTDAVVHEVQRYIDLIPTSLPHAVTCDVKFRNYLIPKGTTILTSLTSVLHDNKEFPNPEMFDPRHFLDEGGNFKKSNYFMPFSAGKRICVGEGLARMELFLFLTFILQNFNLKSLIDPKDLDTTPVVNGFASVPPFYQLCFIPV

For `O=C(N/N=C/c1cccs1)c1ccc2c(c1)OCO2`, the Activity in data set [1] was 96%; in [2] it was 67%; in data set [3], 100%; in data set [4], 99%; in [5] it was 81%; in data set [6] it was 95%. Besides, the figures for the Activity in [7] and in data set [8] were 92% and 98%, respectively.

As to `Cc1nc2c([nH]1)c(=O)n(C)c(=O)n2Cc1ccco1` [FURAFYLLINE], the Stability in data set [9] was determined as 0.12 µM.

For the molecule `CC(=O)N1CCN(c2ccc(OCC3COC(Cn4ccnc4)(c4ccc(Cl)cc4Cl)O3)cc2)CC1` (configuration not stated) [KETOCONAZOLE], in data set [10], the Stability was determined as 0.31 µM.

Take `C=C[C@H]1C[N@@]2CC[C@H]1C[C@@H]2[C@@H](O)c1ccnc2ccc(OC)cc12` [QUINIDINE]: the Stability in [11] was 0.91 µM.

Consider `Nc1ccc(S(=O)(=O)Nc2ccnn2-c2ccccc2)cc1` [SULFAPHENAZOLE], for which the Stability in [12] came to 0.85 µM.
